This is an account of results in article PMC6130205 (Journal of medicinal chemistry, 2018).

Format in all cases: biochemical
Assay [1] deals with T1, SIRT1 (Homo sapiens, UniProt Q96EB6).
T1 sequence (Q96EB6 2-747): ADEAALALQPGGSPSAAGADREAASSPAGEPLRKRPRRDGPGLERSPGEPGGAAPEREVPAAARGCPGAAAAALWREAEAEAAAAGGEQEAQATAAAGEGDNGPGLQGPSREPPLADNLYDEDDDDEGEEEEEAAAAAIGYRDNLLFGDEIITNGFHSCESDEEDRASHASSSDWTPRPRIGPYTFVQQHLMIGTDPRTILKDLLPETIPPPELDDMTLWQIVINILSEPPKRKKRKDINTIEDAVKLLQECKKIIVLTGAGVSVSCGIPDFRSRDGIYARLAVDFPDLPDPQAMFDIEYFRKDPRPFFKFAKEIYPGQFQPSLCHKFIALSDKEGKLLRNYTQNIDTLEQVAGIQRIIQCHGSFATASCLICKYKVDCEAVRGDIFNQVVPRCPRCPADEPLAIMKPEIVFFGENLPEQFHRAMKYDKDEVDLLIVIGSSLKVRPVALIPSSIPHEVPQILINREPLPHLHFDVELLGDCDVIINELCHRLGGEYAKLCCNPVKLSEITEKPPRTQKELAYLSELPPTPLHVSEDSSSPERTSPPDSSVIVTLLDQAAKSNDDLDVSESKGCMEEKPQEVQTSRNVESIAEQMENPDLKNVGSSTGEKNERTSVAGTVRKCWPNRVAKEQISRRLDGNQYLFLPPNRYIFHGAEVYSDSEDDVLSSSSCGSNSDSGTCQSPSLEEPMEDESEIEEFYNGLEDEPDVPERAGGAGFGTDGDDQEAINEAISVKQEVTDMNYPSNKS
Briefly: fluorometric substrate cleavage kinetics.

The target in assay [2] is T1, SIRT1. Briefly: in vitro SIRT1 reaction monitored by […] NMR.
Assay [3] concerns the target T1, SIRT1. The experiment in a line: fluorometric substrate cleavage.

For `Cc1cc(=O)oc2cc(NC(=O)[C@H](CCCCNC(=O)c3ccc(F)cc3)NC(=O)OCc3ccccc3)ccc12` [compound 4, Benzyl (6-(4-Fluorobenzamido)-1-((4-methyl-2-oxo-2H-chromen-7-yl)amino)-1-oxohexan-2-yl)carbamate], on SIRT1 [1], the “fluorometric substrate cleavage kinetics (Kcat/Km)” value was found to be 16.08 ± 1.32 M⁻¹ s⁻¹.
For the compound `O=C(CCCCCNC(=O)c1ccccc1F)Nc1ccccc1` [compound 12, 2-FBzAHA], the “in vitro SIRT1 reaction monitored by 19F NMR” value at SIRT1 [2] is recorded as “The enzymatic cleavage of 2F-BzAHA by SIRT1 was validated using an in vitro SIRT1 enzyme assay”.
As for `Cc1cc(=O)oc2cc(NC(=O)[C@H](CCCCNC(=O)c3cccc(F)c3)NC(=O)OCc3ccccc3)ccc12` [compound 3, Benzyl (6-(3-Fluorobenzamido)-1-((4-methyl-2-oxo-2H-chromen-7-yl)amino)-1-oxohexan-2-yl)carbamate], the “fluorometric substrate cleavage kinetics (Kcat/Km)” value on SIRT1 [1] amounted to 63.39 ± 4.32 M⁻¹ s⁻¹.
Same read-out and setting: for `Cc1cc(=O)oc2cc(NC(=O)[C@H](CCCCNC(=O)c3ccccc3F)NC(=O)OCc3ccccc3)ccc12` [compound 2, Benzyl (6-(2-Fluorobenzamido)-1-((4-methyl-2-oxo-2H-chromen-7-yl)amino)-1-oxohexan-2-yl)carbamate] the value was 26.02 ± 7.07 M⁻¹ s⁻¹.
With `Cc1cc(=O)oc2cc(NC(=O)[C@H](CCCCNC(=O)Cc3ccccc3)NC(=O)OCc3ccccc3)ccc12` [compound 7], the “fluorometric substrate cleavage (Kcat)” value at SIRT1 [3] is “(0.37 ± 0.02) × 10^−3 s^−1”.
Still for that read-out and setting: for `CCc1ccc(C(=O)NCCCC[C@H](NC(=O)OCc2ccccc2)C(=O)Nc2ccc3c(C)cc(=O)oc3c2)cc1` [compound 5, Benzyl (6-(4-Ethylbenzamido)-1-((4-methyl-2-oxo-2H-chromen-7-yl)amino)-1-oxohexan-2-yl)carbamate] the value was “the 4-ethyl substitution increased the Kcat for SIRT1 but only minimally”; for `Cc1cc(=O)oc2cc(NC(=O)[C@H](CCCCNC(=O)c3ccccc3)NC(=O)OCc3ccccc3)ccc12` [compound 1, Benzyl (6-Benzamido-1-((4-methyl-2-oxo-2H-chromen-7-yl)-amino)-1-oxohexan-2-yl)carbamate], “(0.41 ± 0.014) × 10^−3 s^−1”.
